# Legend:
# [1] = target: T1, D(4) dopamine receptor (Homo sapiens, UniProt P21917); assay: DRUGMATRIX: Dopamine D4.2 radioligand binding (ligand: [3H] Spiperone); assay type: cell membranes, CHO-K1, Membrane; details: cho-k1; Not Active = under 50% inhibition at 10 µM
# T1 sequence (P21917 whole entry): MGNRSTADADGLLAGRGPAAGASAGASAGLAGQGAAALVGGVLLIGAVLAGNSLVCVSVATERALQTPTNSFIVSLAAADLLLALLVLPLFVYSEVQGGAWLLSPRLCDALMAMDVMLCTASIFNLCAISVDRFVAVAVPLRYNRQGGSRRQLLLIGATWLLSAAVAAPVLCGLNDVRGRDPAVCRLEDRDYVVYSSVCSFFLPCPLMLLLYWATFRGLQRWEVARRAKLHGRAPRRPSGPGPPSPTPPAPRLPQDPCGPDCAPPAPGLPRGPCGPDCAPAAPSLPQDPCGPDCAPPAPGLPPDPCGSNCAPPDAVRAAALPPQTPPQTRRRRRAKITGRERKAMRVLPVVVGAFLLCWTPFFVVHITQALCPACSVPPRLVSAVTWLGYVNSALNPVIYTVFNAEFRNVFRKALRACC
# [2] = target: Receptor tyrosine-protein kinase erbB-2 (Homo sapiens, UniProt P04626); assay: biochemical; assay type: cell-based, Insect cells; details: insect cells;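 note: inhibition of HER2 kinase enzyme activity, measured with Poly(Glu:Tyr) as the phosphorylation substrate; in other assays of this panel Not Active means under 50% inhibition at 10 µM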
# [3] = target: Cytochrome P450 3A4 (Homo sapiens, UniProt P08684); details: bti-tn-5b1-4; note: in other assays of this panel Not Active means under 50% inhibition at 10 µM
# Chain of Cytochrome P450 3A4 (P08684 whole entry): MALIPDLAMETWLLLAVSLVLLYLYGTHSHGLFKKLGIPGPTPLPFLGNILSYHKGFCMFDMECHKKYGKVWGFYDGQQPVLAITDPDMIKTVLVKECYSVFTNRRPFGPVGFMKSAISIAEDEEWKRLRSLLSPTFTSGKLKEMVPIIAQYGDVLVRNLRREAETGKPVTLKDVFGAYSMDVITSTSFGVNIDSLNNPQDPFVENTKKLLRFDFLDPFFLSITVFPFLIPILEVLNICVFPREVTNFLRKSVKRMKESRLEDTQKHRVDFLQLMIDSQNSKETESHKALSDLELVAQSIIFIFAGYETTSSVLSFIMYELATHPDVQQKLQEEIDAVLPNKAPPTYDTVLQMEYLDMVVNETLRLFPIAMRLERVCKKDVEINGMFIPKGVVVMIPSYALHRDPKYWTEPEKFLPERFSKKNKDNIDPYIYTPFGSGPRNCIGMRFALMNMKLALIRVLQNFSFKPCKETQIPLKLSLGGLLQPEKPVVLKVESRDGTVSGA
# [4] = target: T2, Cytochrome P450 1A2 (Homo sapiens, UniProt P05177); details: bti-tn-5b1-4; note: in other assays of this panel Not Active means under 50% inhibition at 10 µM
# T2 sequence (P05177 whole entry): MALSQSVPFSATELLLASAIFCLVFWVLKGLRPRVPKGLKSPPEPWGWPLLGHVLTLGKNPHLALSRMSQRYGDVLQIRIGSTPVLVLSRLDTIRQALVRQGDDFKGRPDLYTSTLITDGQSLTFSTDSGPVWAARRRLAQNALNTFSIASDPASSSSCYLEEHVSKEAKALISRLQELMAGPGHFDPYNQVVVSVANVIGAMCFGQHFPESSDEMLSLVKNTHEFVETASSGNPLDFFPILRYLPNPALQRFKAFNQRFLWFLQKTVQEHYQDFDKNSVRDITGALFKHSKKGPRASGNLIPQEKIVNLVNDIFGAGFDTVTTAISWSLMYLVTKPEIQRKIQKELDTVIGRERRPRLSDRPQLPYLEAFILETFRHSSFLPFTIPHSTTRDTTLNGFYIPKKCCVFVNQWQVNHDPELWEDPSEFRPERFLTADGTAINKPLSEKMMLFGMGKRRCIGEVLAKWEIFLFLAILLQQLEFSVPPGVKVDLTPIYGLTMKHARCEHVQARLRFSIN
# [5] = target: Melanocortin receptor 5 (Homo sapiens, UniProt P33032); assay type: cell membranes, HEK293, Membrane; details: hek293; note: in other assays of this panel Not Active means under 50% inhibition at 10 µM
# Chain of Melanocortin receptor 5 (P33032 whole entry): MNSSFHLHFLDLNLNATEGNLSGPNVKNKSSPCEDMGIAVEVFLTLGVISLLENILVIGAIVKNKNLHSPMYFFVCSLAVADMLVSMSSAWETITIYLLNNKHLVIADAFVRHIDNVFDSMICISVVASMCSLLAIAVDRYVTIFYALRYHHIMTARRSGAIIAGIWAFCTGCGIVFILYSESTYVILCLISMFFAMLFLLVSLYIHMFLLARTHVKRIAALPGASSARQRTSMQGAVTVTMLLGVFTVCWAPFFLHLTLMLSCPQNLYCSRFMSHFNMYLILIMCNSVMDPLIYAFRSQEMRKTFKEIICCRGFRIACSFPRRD
# [6] = target: Cytochrome P450 2C9 (Homo sapiens, UniProt P11712); details: bti-tn-5b1-4; note: in other assays of this panel Not Active means under 50% inhibition at 10 µM
# Chain of Cytochrome P450 2C9 (P11712 whole entry): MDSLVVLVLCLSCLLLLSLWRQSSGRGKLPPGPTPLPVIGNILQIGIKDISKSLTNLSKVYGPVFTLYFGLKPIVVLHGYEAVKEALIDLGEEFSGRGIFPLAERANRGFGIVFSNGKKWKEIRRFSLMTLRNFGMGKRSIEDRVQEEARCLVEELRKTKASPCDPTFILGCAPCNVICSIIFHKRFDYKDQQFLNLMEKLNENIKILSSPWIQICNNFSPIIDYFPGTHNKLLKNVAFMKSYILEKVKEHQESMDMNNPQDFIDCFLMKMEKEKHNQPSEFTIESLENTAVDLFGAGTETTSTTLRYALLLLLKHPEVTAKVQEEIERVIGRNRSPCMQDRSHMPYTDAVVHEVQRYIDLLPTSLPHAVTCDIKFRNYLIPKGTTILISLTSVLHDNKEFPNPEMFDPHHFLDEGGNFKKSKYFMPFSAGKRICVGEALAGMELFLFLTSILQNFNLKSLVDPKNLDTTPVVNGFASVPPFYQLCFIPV
# [7] = target: C-C chemokine receptor type 2 (Homo sapiens, UniProt P41597); assay type: cell membranes, CHO-K1, Membrane; details: cho-k1; note: in other assays of this panel Not Active means under 50% inhibition at 10 µM
# Chain of C-C chemokine receptor type 2 (P41597 whole entry): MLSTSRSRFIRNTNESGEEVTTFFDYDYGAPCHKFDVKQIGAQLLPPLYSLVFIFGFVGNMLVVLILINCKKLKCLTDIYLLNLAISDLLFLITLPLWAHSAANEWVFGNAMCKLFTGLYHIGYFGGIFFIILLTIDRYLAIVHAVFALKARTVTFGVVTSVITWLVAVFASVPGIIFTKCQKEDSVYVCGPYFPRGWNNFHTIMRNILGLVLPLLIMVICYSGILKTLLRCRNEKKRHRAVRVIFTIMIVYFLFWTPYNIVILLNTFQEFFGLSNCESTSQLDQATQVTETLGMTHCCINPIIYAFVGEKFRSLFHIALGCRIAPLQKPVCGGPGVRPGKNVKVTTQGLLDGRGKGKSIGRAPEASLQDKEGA
Molecule,IC50 [1],IC50 [2],IC50 [3],Ki [3],IC50 [4],Ki [4],IC50 [5],IC50 [6],Ki [6],IC50 [7],Ki [1],IC50 ([2]; read-out: IC50) [µM],Ki [5],Ki [7]
CCCCC1C(=O)N(c2ccccc2)N(c2ccccc2)C1=O [PHENYLBUTAZONE],Not Active,Not Active,Not Active,Not Active,Not Active,Not Active,Not Active,Not Active,Not Active,Not Active,,,,
C=C1/C(=C\C=C2/CCC[C@]3(C)[C@@H]([C@H](C)CCCC(C)C)CC[C@@H]23)C[C@@H](O)C[C@@H]1O [ALFACALCIDOL],Not Active,Not Active,Not Active,Not Active,Not Active,Not Active,Not Active,Not Active,Not Active,Not Active,,,,
NC(=O)N1c2ccccc2C=Cc2ccccc21 [CARBAMAZEPINE],Not Active,Not Active,Not Active,Not Active,Not Active,Not Active,Not Active,Not Active,Not Active,Not Active,,,,
COc1ccc(Cc2nccc3cc(OC)c(OC)cc23)cc1OC [PAPAVERINE],Not Active,Not Active,Not Active,Not Active,Not Active,Not Active,Not Active,Not Active,Not Active,Not Active,,,,
CNC(=C[N+](=O)[O-])NCCSCc1csc(CN(C)C)n1 [NIZATIDINE],Not Active,Not Active,Not Active,Not Active,Not Active,Not Active,Not Active,Not Active,Not Active,Not Active,,,,
Cc1cccc(Nc2cc(Cl)nc(SCC(=O)O)n2)c1C [PIRINIXIC ACID],Not Active,Not Active,Not Active,Not Active,Not Active,Not Active,Not Active,Not Active,Not Active,Not Active,,,,
CC(CCc1ccc(O)cc1)NCCc1ccc(O)c(O)c1 (stereo not drawn) [DOBUTAMINE],Not Active,Not Active,Not Active,Not Active,Not Active,Not Active,Not Active,Not Active,Not Active,Not Active,,,,
CC(C)(Sc1cc(C(C)(C)C)c(O)c(C(C)(C)C)c1)Sc1cc(C(C)(C)C)c(O)c(C(C)(C)C)c1 [PROBUCOL],Not Active,Not Active,Not Active,Not Active,Not Active,Not Active,Not Active,Not Active,Not Active,Not Active,,,,
[N-]=[N+]=CC(=O)OC[C@H](N)C(=O)O [AZASERINE],Not Active,Not Active,Not Active,Not Active,Not Active,Not Active,Not Active,Not Active,Not Active,Not Active,,,,
C[C@H](C(=O)O)c1cccc(C(=O)c2ccccc2)c1 [DEXKETOPROFEN],Not Active,Not Active,Not Active,Not Active,Not Active,Not Active,Not Active,Not Active,Not Active,Not Active,,,,
O=c1cc(-c2ccccc2)oc2ccc3ccccc3c12 [BETA-NAPHTHOFLAVONE],Not Active,Not Active,Not Active,Not Active,Not Active,Not Active,Not Active,Not Active,Not Active,Not Active,,,,
Cc1c(N(C)CS(=O)(=O)[O-])c(=O)n(-c2ccccc2)n1C.[Na+] [DIPYRONE SODIUM],Not Active,Not Active,Not Active,Not Active,Not Active,Not Active,Not Active,Not Active,Not Active,Not Active,,,,
CO[C@H]1[C@@H](O)[C@H](N)[C@@H](O[C@H]2O[C@H]([C@H](C)N)CC[C@H]2N)[C@H](O)[C@@H]1N(C)C(=O)CN [ASTROMICIN],Not Active,Not Active,Not Active,Not Active,Not Active,Not Active,Not Active,Not Active,Not Active,Not Active,,,,
CCn1cc(C(=O)O)c(=O)c2cc(F)c(N3CCNCC3)nc21 [ENOXACIN],Not Active,Not Active,Not Active,Not Active,Not Active,Not Active,Not Active,Not Active,Not Active,Not Active,,,,
CCC(=O)O[C@H]1[C@H](O[C@@H]2[C@@H](C)[C@H](O[C@H]3C[C@@](C)(OC)[C@@H](O)[C@H](C)O3)[C@@H](C)C(=O)O[C@H](CC)[C@@](C)(O)[C@H](O)[C@@H](C)C(=O)[C@H](C)C[C@@]2(C)O)O[C@H](C)C[C@@H]1N(C)C [ERYTHROMYCIN PROPIONATE],Not Active,Not Active,Not Active,Not Active,Not Active,Not Active,Not Active,Not Active,Not Active,Not Active,,,,
COBALT(II) ACETYLACETONATE,Not Active,,Not Active,Not Active,Not Active,Not Active,Not Active,Not Active,Not Active,Not Active,Not Active,3.17,Not Active,Not Active
O=C(O)Cc1ccc(-c2ccccc2)cc1 [FELBINAC],Not Active,Not Active,Not Active,Not Active,Not Active,Not Active,Not Active,Not Active,Not Active,Not Active,,,,
N=C(N)N/N=C/c1c(Cl)cccc1Cl [GUANABENZ],Not Active,Not Active,Not Active,Not Active,Not Active,Not Active,Not Active,Not Active,Not Active,Not Active,,,,
C[C@]12CCC(=O)C=C1CC[C@@H]1[C@@H]2[C@@H](O)C[C@@]2(C)[C@H]1CC[C@]2(O)C(=O)CO [HYDROCORTISONE],Not Active,Not Active,Not Active,Not Active,Not Active,Not Active,Not Active,Not Active,Not Active,Not Active,,,,
Nc1nc(N)nc(NC2CC2)n1 [CYROMAZINE],Not Active,Not Active,Not Active,Not Active,Not Active,Not Active,Not Active,Not Active,Not Active,Not Active,,,,
OCCO [ETHYLENE GLYCOL],Not Active,Not Active,Not Active,Not Active,Not Active,Not Active,Not Active,Not Active,Not Active,Not Active,,,,
CCN[C@@H](C)Cc1cccc(C(F)(F)F)c1 [DEXFENFLURAMINE],Not Active,Not Active,Not Active,Not Active,Not Active,Not Active,Not Active,Not Active,Not Active,Not Active,,,,
C[C@]12C/C(=C/O)C(=O)C[C@@H]1CC[C@@H]1[C@@H]2CC[C@@]2(C)[C@H]1CC[C@]2(C)O [OXYMETHOLONE],Not Active,Not Active,Not Active,Not Active,Not Active,Not Active,Not Active,Not Active,Not Active,Not Active,,,,

# Source: ChEMBL document CHEMBL1909046, “DrugMatrix in vitro pharmacology data”
